In article PMC6302136, “Quantitative Chemotherapeutic Profiling of Gynecologic Cancer Cell Lines Using Approved Drugs and Bioactive Compounds^” (Translational Oncology, 2018):
Like-named read-outs stand apart in the source and are kept apart here. *1 amine or outer side, *2 acyl side, *3 side chain or, on linkers, in order; H or OH if unused. Where a SMILES comes first, the peptide text is derived from it. Bridges are numbered along the chain shown (N, C = ends). Roman numbers before positions name the chains, in order. [ ]: non-standard residue; d: D form. Actinocin(9to1) = Cc1c2oc3c(C)ccc(C(=O)[*:1])c3nc-2c(C(=O)[*:2])c(N)c1=O; NMeV = CN[C@H](C(=O)O)C(C)C; Sar = CNCC(=O)O

Experiments:
[1] = cited from earlier work
HDAC 1/2/3/11 = conditions: inhibits only HDAC 1/2/3/11; cited from earlier work
[2] = test system: 11 gynecologic cancer cell lines; experiment: qHTS ATPlite cell viability, gynecologic cancer cell lines (ovarian, cervical, placental); format: cell-based, human; conditions: for Cell Lines Active: number of the 11 cancer cell lines in which the compound is active (<1 μM potency, >70% efficacy)
Description: (§1) The ATPlite luminescence assay system assay kit was used to determine cell viability. The reagent was reconstituted and prepared as described by the manufacturer. To measure the cell death caused by the compounds, cells were cultured in 4 μl of media for 16 hours at 37°C with 5% CO2 in assay plates, followed by the addition of DMSO or 16 SOC chemotherapeutic compounds dissolved in DMSO. SOC compounds were dosed at 11 concentrations (1:3 dilution) in quadruplicate from 57.5 μM to 0.977 nM using the automated Wako 1536 Pin Tool workstation and incubated at 37°C with 5% CO2 for 24, 48, or 72 hours. Four microliters of ATPlite, the ATP monitoring reagent, was then added to each well of the assay plates using the Multidrop Combi reagent dispenser followed by incubation for 15 minutes at room temperature. The resulting luminescence was measured using the ViewLux plate reader. Data were normalized for each drug using the largest luminescence value as 100% full cell viability (0% cell killing) and to the smallest luminescence value 0% viability (100% cell killing).
(§2) A qHTS [79], in which each compound was assayed in five concentrations (0.092, 0.46, 2.3, 11.5, and 57.5 μM), was performed for the primary compound screen using the NPC [80] and NPACT drug libraries at NCATS. The OBGYN cancer and HEK 293T control cells were seeded into 1536-well assay plates at 1000 cells per 4 μl/well and incubated at 37°C in 5% CO2 for 48 hours. The ATPlite assay to determine the IC50 values for each compound was conducted as described above. Plates were processed on the fully integrated Kalypsys robotic system.

[3] = test system: ovarian and cervical cancer cell lines; experiment: qHTS ATPlite cell viability, ovarian + cervical cancer cell lines; format: cell-based, human; conditions: Ovarian + cervical cancer cell line killer
Description: A qHTS [79], in which each compound was assayed in five concentrations (0.092, 0.46, 2.3, 11.5, and 57.5 μM), was performed for the primary compound screen using the NPC [80] and NPACT drug libraries at NCATS. […]

TOV-21-G cells = experiment: qHTS ATPlite cell viability, TOV-21-G cells; format: cell-based, human; conditions: for IC50: Homo sapiens, TOV21G, 48 h; for Avg SI: TOV-21-G selective compounds, vs HEK 293T, >100 = inactive in HEK293T
PA-1 cells = experiment: ATP content (ATPlite) cell viability assay in PA-1 cells; format: cell-based, human
CAOV-3 cells = experiment: ATP content (ATPlite) cell viability assay in CAOV-3 cells; format: cell-based, human; conditions: assay optimization
Description: as §1

HDAC 1/2/3 = conditions: against HDAC 1/2/3 only; cited from earlier work
[4] = test system: cervical cancer cell lines (HeLa, Ca Ski, C-33 A); experiment: qHTS ATPlite cell viability, cervical cancer cell lines; format: cell-based; conditions: Homo sapiens
HEK 293T cells [5] = experiment: cells; conditions: 48 h; for IC50: read-out: IC50 (HEK 293T toxicity)
Description: as §1, §2

HEK 293T cells [6] = test system: HEK 293T cells; design: method as in PMID 31498718; conditions: CellTiterGlo, cited from earlier work; for IC50: independent screen
[7] = test system: placental cancer cell lines (JAR, JEG-3); experiment: qHTS ATPlite cell viability, placental cancer cell lines; format: cell-based, human; conditions: Homo sapiens, JEG-3; read-out: IC50 for the placental lines
Description: as §1
The ATPlite assay to determine the IC50 values for each compound was conducted as described above. Plates were processed on the fully integrated Kalypsys robotic system.

[8] = test system: ovarian cancer cell lines; experiment: qHTS ATPlite cell viability, ovarian cancer cell lines; format: cell-based, human
HeLa cells = experiment: qHTS ATPlite cell viability, HeLa cells; format: cell-based, human
[9] = test system: ovarian and placental cancer cell lines; experiment: qHTS ATPlite cell viability, ovarian + placental cancer cell lines; format: cell-based, human; conditions: for IC50: Homo sapiens, 48 h; for Average SI: vs HEK 293T, >100 = inactive in HEK293T
Description: as §1, §2

[10] = Pan-GYN cancer cell line killer, vs HEK 293T, >100 = inactive in HEK293T (efficacy <50%)
[11] = Homo sapiens, average IC90 over the cell lines in which the compound is active, read-out: IC90
[12] = HEK 293T, this screen (ATPlite)
[13] = toxic compounds, selectivity index vs HEK 293T, average over all cancer cell lines, mean ± S.D.
[14] = Ovarian + placental cancer cell line killer

Nc1ccccc1NC(=O)c1ccc(CNc2nccc(-c3cccnc3)n2)cc1 [Mocetinostat]
Cmax ([1]; 10 mg/kg, in humans, read-out: Cmax): ~21400 nM
Cmax ([1]; 40 mg/kg, in humans, read-out: Cmax): 75700 nM
potency of HDAC inhibition (HDAC 1/2/3/11): low micromolar potency or below
IC50 ([2]; Homo sapiens, 48 h, read-out: Average IC50 (μM)): 2.76 ± 1.98 µM
Average SI [2, 10]: >100
Average SI ([2]; Pan-GYN cancer cell line killer, vs HEK 293T, >100 = inactive in HEK293T (efficacy <50%), listed as mocetinostat): > 100

Cc1cc(CN2CCN(c3c(Br)cnc4nc(-c5ccc(N6CCN(C)CC6)cc5)[nH]c34)CC2)no1 [CCT137690]
IC50 ([3]; mean of cell lines fulfilling criteria, 48 h): 20000 ± 7020 nM
Average SI ([3]; vs HEK 293T, >100 = inactive in HEK293T): >100

CNC(=O)c1nn(C)c2c1C(C)(C)Cc1cnc(Nc3ccc(N4CCN(C)CC4)cc3)nc1-2 [Milciclib, N,1,4,4-tetramethyl-8-{[4-(4-methylpiperazin-1-yl)phenyl]amino}-4,5-dihydro-1H-py razolo[4,3-h]quinazoline-3-carboxamide]
IC50 (TOV-21-G cells; TOV-21-G, confirmation screen, read-out: Avg IC50): 0.0897 µM
Avg SI (TOV-21-G cells): 50.1

COc1cccc2c1C(=O)c1c(O)c3c(c(O)c1C2=O)C[C@@](O)(C(=O)CO)C[C@@H]3O[C@H]1C[C@H](N)[C@H](O)[C@H](C)O1 [Adriamycin]
IC50 (PA-1 cells; Homo sapiens, PA-1, 24 hours incubation, assay optimization, read-out: IC50 (PA-1)): 109 nM
IC50 (PA-1 cells; Homo sapiens, PA-1, 48 hours incubation, assay optimization, read-out: IC50 (PA-1)): 11.8 nM
IC50 (PA-1 cells; Homo sapiens, PA-1, 72 hours incubation, assay optimization, read-out: IC50 (PA-1)): 3.59 nM
IC50 (PA-1 cells; Homo sapiens, PA-1, confirmation screen, 48 h, read-out: Avg IC50): 576 nM
Avg SI (PA-1 cells; PA-1 selective compounds, vs HEK 293T, >100 = inactive in HEK293T): 7.02
IC50 (CAOV-3 cells; Homo sapiens, Caov-3, 24 hours incubation): 15900 nM
IC50 (CAOV-3 cells; Homo sapiens, Caov-3, 48 hours incubation): 98.2 nM
IC50 (CAOV-3 cells; Homo sapiens, Caov-3, 72 hours incubation): 73.7 nM

CC(C)C[C@H](NC(=O)[C@H](Cc1ccccc1)NC(=O)c1cnccn1)B(O)O [Bortezomib]
Cmax ([1]; intravenous dose, read-out: Cmax): 580 nM
IC90 [2, 11]: 218 nM
IC50 ([2]; Homo sapiens, average over the cell lines in which the compound was active, read-out: average IC50): 0.15 µM
Cell Lines Active [2]: 8

CCOc1cc2ncc(C#N)c(Nc3ccc(OCc4ccccn4)c(Cl)c3)c2cc1NC(=O)/C=C/CN(C)C [Neratinib]
IC50 (TOV-21-G cells; read-out: Avg IC50 (μM)): 0.619 µM
Avg SI (TOV-21-G cells): >100

Nc1ccccc1NC(=O)c1ccc(CNC(=O)OCc2cccnc2)cc1 [Entinostat]
Cmax ([1]; humans, 15 mg, read-out: Cmax): 460 nM
potency of HDAC inhibition (HDAC 1/2/3): submicromolar potency
IC50 ([2]; Homo sapiens, Pan-GYN cancer cell line killer, mean of all cell lines fulfilling criteria, 48 h, read-out: Average IC50): 7.11 ± 6.62 µM
Average SI [2, 10]: >100
Average SI ([2]; Pan-GYN cancer cell line killer, vs HEK 293T, >100 = inactive in HEK293T (efficacy <50%), listed as entinostat): > 100

Cc1[nH]c2ccccc2c1CCNCc1ccc(/C=C/C(=O)NO)cc1 [Panobinostat]
IC50 [4]: 224 nM
Efficacy (%) (HEK 293T toxicity) (HEK 293T cells [5]; [12]): 82.6%
IC50 (HEK 293T cells [5]; Homo sapiens, HEK-293T): 210 nM
toxicity to HEK 293T cells (HEK 293T cells [5]; human): equally toxic to HEK 293T cells
Cmax ([1]; oral administration, read-out: Cmax human plasma concentration, range): 38 to 119 nM
Cmax ([1]; oral administration, read-out: median Cmax human plasma concentration): 61 nM
Efficacy (%) (independent screen, HEK 293T) (HEK 293T cells [6]): 85.5%
Independent Screen (confirmation of HEK 293T toxicity) (HEK 293T cells [6]): Confirmed toxic
IC50 (HEK 293T cells [6]): 162 nM
IC50 [7]: 516 nM
IC50 ([8]; Homo sapiens, read-out: IC50 for the ovarian lines): 343 nM
IC90 [2, 11]: 719 nM
IC50 ([2]; Homo sapiens, toxic compounds, average over all cancer cell lines, 48 h, mean ± S.D., read-out: Average IC50): 0.355 ± 0.268 µM
Cell Lines Active [2]: 11
Average SI [2, 13]: 0.92 ± 0.57

COc1cc(N2CCC(N3CCN(C)CC3)CC2)ccc1Nc1ncc(Cl)c(Nc2ccccc2S(=O)(=O)C(C)C)n1 [NVP-TAE684]
Avg SI (HeLa cells; HeLa selective compounds, vs HEK 293T): 28.0
IC50 (HeLa cells; HeLa, confirmation screen, 48 h): 835 nM
Efficacy (%) (HEK 293T toxicity) (HEK 293T cells [5]; [12]): 91.8%
IC50 (HEK 293T cells [5]; [12]): 23400 nM
Efficacy (%) (independent screen, HEK 293T) (HEK 293T cells [6]): 126%
Independent Screen (confirmation of HEK 293T toxicity) (HEK 293T cells [6]): Confirmed toxic
IC50 (HEK 293T cells [6]): 3650 nM
IC50 ([2]; toxic compounds, average over all cancer cell lines, 48 h, mean ± S.D., read-out: Average IC50): 15.7 ± 10 µM
Average SI [2, 13]: 4.87 ± 7.61

Cc1cnc(Nc2ccc(OCCN3CCCC3)cc2)nc1Nc1cccc(S(=O)(=O)NC(C)(C)C)c1 [Fedratinib]
IC50 ([9]; Ovarian + placental cancer cell line killer, mean of cell lines fulfilling criteria, read-out: Average IC50): 13.1 ± 7.51 µM
Average SI [9, 14]: >100
Average SI ([9]; Ovarian + placental cancer cell line killer, listed as fedratinib): > 100
selective killing of ovarian cancer lines ([8]; SI of 5 or greater, six ovarian lines): selectivity killed all six ovarian cancer lines

CC(=O)OC(C)(C)/C=C/C(=O)[C@](C)(O)[C@H]1[C@H](O)C[C@@]2(C)[C@@H]3CC=C4[C@H](C[C@H](O)C(=O)C4(C)C)[C@]3(C)C(=O)C[C@]12C [Curcubitacin B]
IC50 (PA-1 cells; 48 hours incubation, assay optimization, read-out: IC50 (PA-1)): 63.2 nM
IC50 (PA-1 cells; 72 hours incubation, assay optimization, read-out: IC50 (PA-1)): 61.8 nM
IC50 (CAOV-3 cells; 24 hours incubation): 18.1 nM
IC50 (CAOV-3 cells; 48 hours incubation): ~20.6 nM
IC50 (CAOV-3 cells; 72 hours incubation): 22.2 nM

Cc1c2oc3c(C)ccc(C(=O)N[C@@H]4C(=O)N[C@H](C(C)C)C(=O)N5CCC[C@H]5C(=O)N(C)CC(=O)N(C)[C@@H](C(C)C)C(=O)O[C@@H]4C)c3nc-2c(C(=O)N[C@@H]2C(=O)N[C@H](C(C)C)C(=O)N3CCC[C@H]3C(=O)N(C)CC(=O)N(C)[C@@H](C(C)C)C(=O)O[C@@H]2C)c(N)c1=O [Actinomycin D] (I: T[dV]P[Sar][NMeV] / II: T[dV]P[Sar][NMeV]; ester I:1-I:C, II:1-II:C; linker I:N-II:N via Actinocin(9to1))
IC50 ([9]; read-out: Average IC50 (μM)): 0.78 ± 0.222 µM
Average SI [9, 14]: >100
Average SI ([9]; Ovarian + placental cancer cell line killer, listed as actinomycin D): > 100
IC90 ([2]; Homo sapiens, read-out: average IC90): 512 nM
